Laboratory results taken from patent US8168651B2, “Protein kinase modulators” (Cylene Pharmaceuticals, Inc., priority 2008, dated 2012).
Like-named read-outs stand apart in the source and are kept apart here.

Columns and labels:
recombinant human CK2 = recombinant human CK2 (Homo sapiens (Human), UniProt P68400); test: CK2 assay (cell-free, 33P-ATP filter plate); assay type: biochemical; settings: for inhibition at 10 µM: read-out: CK2 % inhib @ 10 uM; for inhibition at 0.5 µM: 500 nM compound, read-out: CK2: % inh 500 nM; for inhibition at 5 µM: read-out: CK2 % inhibition 5 uM, 5 uM
recombinant human PIM1 = recombinant human PIM1 (Homo sapiens (Human), UniProt P11309); test: PIM-1 kinase activity in cell-free in vitro assay; assay type: biochemical; settings: for inhibition at 0.5 µM: 500 nM compound, read-out: PIM-1: % inh 500 nM
[1] = read-out: CK2 % inhibition 1.0 uM, 1.0 uM

recombinant human PIM1, sequence (P11309 whole entry): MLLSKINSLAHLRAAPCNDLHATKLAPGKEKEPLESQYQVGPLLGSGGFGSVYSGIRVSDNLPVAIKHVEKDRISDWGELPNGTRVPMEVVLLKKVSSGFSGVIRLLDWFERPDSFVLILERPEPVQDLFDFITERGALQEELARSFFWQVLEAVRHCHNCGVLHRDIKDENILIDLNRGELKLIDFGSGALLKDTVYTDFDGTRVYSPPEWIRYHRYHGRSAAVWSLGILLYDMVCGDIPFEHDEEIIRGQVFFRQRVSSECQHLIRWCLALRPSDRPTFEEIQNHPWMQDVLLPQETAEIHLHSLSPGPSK
recombinant human CK2, sequence (P68400 whole entry): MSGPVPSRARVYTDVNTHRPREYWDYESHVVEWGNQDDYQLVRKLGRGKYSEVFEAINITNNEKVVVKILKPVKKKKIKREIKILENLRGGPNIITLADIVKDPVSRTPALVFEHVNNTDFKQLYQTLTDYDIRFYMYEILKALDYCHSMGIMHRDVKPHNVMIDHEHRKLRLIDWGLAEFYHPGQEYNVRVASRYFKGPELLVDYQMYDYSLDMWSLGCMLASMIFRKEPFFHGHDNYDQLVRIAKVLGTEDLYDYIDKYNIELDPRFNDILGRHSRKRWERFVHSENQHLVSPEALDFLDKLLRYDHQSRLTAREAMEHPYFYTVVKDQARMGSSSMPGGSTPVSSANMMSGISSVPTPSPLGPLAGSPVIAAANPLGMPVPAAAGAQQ
recombinant human CK2, sequence (P67870 whole entry partner): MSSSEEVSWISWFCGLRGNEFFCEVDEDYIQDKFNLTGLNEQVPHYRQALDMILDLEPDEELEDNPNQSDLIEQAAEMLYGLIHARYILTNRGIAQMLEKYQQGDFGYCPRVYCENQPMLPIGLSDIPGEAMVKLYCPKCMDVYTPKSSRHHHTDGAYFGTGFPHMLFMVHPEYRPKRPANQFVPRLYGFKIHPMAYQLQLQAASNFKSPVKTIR

Structure (SMILES) | inhibition at 10 µM (recombinant human CK2) [%] | inhibition at 0.5 µM (recombinant human CK2; cell-free assay) [%] | inhibition at 0.5 µM (recombinant human PIM1; cell-free assay) [%] | other results
CC(=O)N1CCN(C(=O)c2ccc3c(c2)[nH]c(=O)c2ccsc23)CC1 | 7 | – | – | –
CC(C)(C)OC(=O)N1CCC(Nc2nc3cc(C#N)ccc3c3ccsc23)CC1 | – | -17 | -29.4 | –
COC(=O)c1ccc2c(c1)nc(Nc1ccc(F)c(Cl)c1)c1ncncc12 | – | – | – | inhibition at 0.5 µM (recombinant human CK2; cell-free): 6.26%; inhibition at 0.5 µM (recombinant human PIM1; cell-free): -17.9%
Cc1cc2c(cc1OCc1ccccc1)[nH]c(=O)c1ccncc12 | – | -7.77 | -10.1 | –
O=C(c1ccc2c(c1)[nH]c(=O)c1ccsc12)N1CCOCC1 | 2 | – | – | –
NC(=O)c1ccc2c(c1)nc(Nc1ccccc1)c1ccsc12 [drawing 615] | – | – | – | inhibition at 1 µM (recombinant human CK2; [1]): 0%
CN(C)CCOc1nc2cc(C#N)ccc2c2sccc12 | – | -18 | -43.2 | –
CN1CCCCC1CNc1nc2cc(-c3nnn[nH]3)ccc2c2ccsc12 (centres unmarked) | – | -29.1 | 14.7 | –
CCN1CCCC1CNc1nc2cc(-c3nnn[nH]3)ccc2c2cscc12 (centres unmarked) | – | 72.8 | 95.9 | IC50 (recombinant human PIM1; cell-free assay): 79 nM
CN(C)CCOc1nc2cc(-c3nnn[nH]3)ccc2c2sccc12 | – | 31.4 | 91.6 | –
CN1CCC(N(C)c2nc3cc(CN)ccc3c3sccc23)C1 (centres unmarked) | – | -35.3 | -39.8 | –
CCN1CCCC1CNc1nc2cc(C#N)ccc2c2cscc12 (centres unmarked) | – | 20.7 | 6.89 | –
N#Cc1ccc2c(c1)nc(NCCN(CCO)CCO)c1ccsc12 | – | -9.97 | -17.7 | –
CCCNC(=O)c1ccc2c(c1)[nH]c(=O)c1ccsc12 | -34 | – | – | –
N#Cc1ccc2c(c1)nc(Nc1ccccc1)c1ccsc12 [drawing 614] | – | – | – | inhibition at 1 µM (recombinant human CK2; [1]): 0%
O=C(c1ccc2c(c1)[nH]c(=O)c1ccsc12)N1CCNCC1 | -27 | – | – | –
CC(C)(C)OC(=O)CCNC(=O)c1ccc2c(c1)[nH]c(=O)c1ccsc12 | 8 | – | – | –
CCN1CCCC1CNc1nc2cc(C#N)ccc2c2ccsc12 (centres unmarked) | – | -29.4 | -9.29 | –
O=c1[nH]c2cnccc2c2cnccc12 | – | 7.5 | 19.8 | –
N#Cc1ccc2c(c1)[nH]c(=O)c1ccsc12 | -5 | – | – | –
O=C(Nc1ccc(CN2CCS(=O)(=O)CC2)cc1)c1ccc2c(c1)[nH]c(=O)c1ccsc12 | -1 | – | – | –
CC(C)(C)OC(=O)NC1CCN(C(=O)c2ccc3c(c2)[nH]c(=O)c2ccsc23)CC1 [drawing 677] | – | – | – | CK2 % inhib @ 10 uM (recombinant human CK2): 1%
CN(C)CCNc1nc2cc(C#N)ccc2c2ccsc12 | – | -16.8 | 115 | –
CC(C)(C)OC(=O)NC1CCN(C(=O)c2ccc3c(c2)[nH]c(=O)c2ccsc23)CC1 [drawing 676] | – | – | – | CK2 % inhib @ 10 uM (recombinant human CK2): 10%
CCN1CCCC1CNc1nc2cc(C(=O)O)ccc2c2cnccc12 (centres unmarked) | – | 107 | 79.4 | IC50 (recombinant human PIM1; cell-free assay): 155 nM

Structure (SMILES) | inhibition at 10 µM (recombinant human CK2) [%] | inhibition at 0.5 µM (recombinant human CK2; cell-free assay) [%] | inhibition at 0.5 µM (recombinant human PIM1; cell-free assay) [%] | other results
O=C(O)c1ccc2c(c1)nc(N1CCOCC1)c1ccsc12 [drawing 590] | – | – | – | inhibition at 5 µM (recombinant human CK2): 28%
CN1CCCCC1CNc1nc2cc(C#N)ccc2c2ccsc12 (centres unmarked) | – | 5.51 | 59.5 | –
COC(=O)c1cccc2c1[nH]c(=O)c1ccncc12 | – | 16.7 | -70.5 | –
N#Cc1ccc2c(c1)nc(OCC(F)(F)F)c1ccsc12 | – | -9.05 | -50.2 | –
FC(F)(F)COc1nc2cc(-c3nnn[nH]3)ccc2c2sccc12 | – | 33 | 32.3 | –
O=C(O)c1ccc2c(c1)nc(NC1CCCCC1)c1ccncc12 | – | 95.8 | 64.8 | –
COCCNC(=O)c1ccc2c(c1)[nH]c(=O)c1ccsc12 | -19 | – | – | –
Cc1noc(-c2ccc3c(c2)nc(Nc2ccccc2)c2ccncc23)n1 | – | – | – | inhibition at 0.5 µM (recombinant human CK2; cell-free): 27.2%; inhibition at 0.5 µM (recombinant human PIM1; cell-free): 32.7%; IC50 (recombinant human PIM1; cell-free): > 1100 nM
O=C(O)CCNC(=O)c1ccc2c(c1)[nH]c(=O)c1ccsc12 | 16 | – | – | –
O=c1[nH]c2ccc(OC(F)(F)F)cc2c2cnccc12 | – | 1.22 | 9.09 | –
O=c1[nH]c2cc(CO)ccc2c2sccc12 | 3 | – | – | –
COC(=O)c1ccccc1NC(=O)c1ccc2c(c1)[nH]c(=O)c1ccsc12 [drawing 674] | – | – | – | CK2 % inhib @ 10 uM (recombinant human CK2): −16%
O=C(NCc1ccccc1)c1ccc2c(c1)[nH]c(=O)c1ccsc12 [drawing 671] | – | – | – | CK2 % inhib @ 10 uM (recombinant human CK2): 14%
CN(C)CCNc1nc2ccccc2c2sccc12 [drawing 589] | – | – | – | inhibition at 5 µM (recombinant human CK2): 0%
O=C(NCc1ccccc1)c1ccc2c(c1)[nH]c(=O)c1ccsc12 [drawing 672] | – | – | – | CK2 % inhib @ 10 uM (recombinant human CK2): −1%
Cc1cc(CNC(=O)c2ccc3c(c2)[nH]c(=O)c2ccsc23)no1 | -13 | – | – | –
O=C(NCCN1CCOCC1)c1ccc2c(c1)[nH]c(=O)c1ccsc12 | -9 | – | – | –
COC(=O)c1ccccc1NC(=O)c1ccc2c(c1)[nH]c(=O)c1ccsc12 [drawing 673] | – | – | – | CK2 % inhib @ 10 uM (recombinant human CK2): 5%
O=c1[nH]c2cc(-c3nnn[nH]3)ccc2c2cnccc12 [drawing 568] | – | – | – | inhibition at 1 µM (recombinant human CK2; at 1 μM, read-out: CK2 Inhibition): 46%
NC1CCN(C(=O)c2ccc3c(c2)[nH]c(=O)c2ccsc23)CC1 | -3 | – | – | –
O=c1[nH]c(-c2ccc3c(c2)nc(Nc2ccccc2)c2ccsc23)no1 [drawing 617] | – | – | – | inhibition at 1 µM (recombinant human CK2; [1]): 0%
N#Cc1ccc2c(c1)nc(Cl)c1ccsc12 [drawing 587] | – | – | – | inhibition at 5 µM (recombinant human CK2): 63%
c1ccc(Nc2nc3ccccc3c3sccc23)cc1 [drawing 588] | – | – | – | inhibition at 5 µM (recombinant human CK2): 0%
O=C(O)c1ccc2c(c1)[nH]c(=O)c1cc(Br)sc12 | 5 | – | – | –
COC(=O)CNC(=O)c1ccc2c(c1)[nH]c(=O)c1ccsc12 | 10 | – | – | –

Second part, led by results:

inhibition at 10 µM (recombinant human CK2) [%] | inhibition at 0.5 µM (recombinant human CK2; cell-free assay) [%] | inhibition at 0.5 µM (recombinant human PIM1; cell-free assay) [%] | Structure (SMILES) | other results
– | -8.77 | -16.4 | NCc1ccc2c(c1)nc(Nc1cccc(F)c1)c1ccsc12 | –
1 | – | – | O=C(NCCc1ccccc1)c1ccc2c(c1)[nH]c(=O)c1ccsc12 | –
1 | – | – | COc1ccc(CNC(=O)c2ccc3c(c2)[nH]c(=O)c2ccsc23)cc1 | –
– | 3.06 | -4.85 | N#Cc1ccc2c(c1)nc(Nc1cccc(F)c1)c1ccsc12 | –
– | 51.3 | 101 | OCCNc1nc2cc(-c3nnn[nH]3)ccc2c2sccc12 | IC50 (recombinant human PIM1; cell-free assay): 143 nM
– | 80.1 | 88 | CN1CCCCC1CNc1nc2cc(C(=O)O)ccc2c2sccc12 (centres unmarked) | IC50 (recombinant human PIM1; cell-free assay): 104 nM
– | -7.87 | 3.96 | COC(=O)c1cccc2c1nc(Nc1ccccc1)c1ccncc12 [drawing 2003] | –
– | -54.2 | -38.6 | N#Cc1ccc2c(c1)nc(Oc1ccccc1)c1ccsc12 | –
– | -50.4 | -38.5 | CN1CCC(N(C)c2nc3cc(CNC(=O)Nc4cccc(Cl)c4)ccc3c3sccc23)C1 (centres unmarked) | –
– | 1.85 | -18.4 | N#Cc1ccc2c(c1)nc(OCc1ccccc1)c1ccsc12 | –
– | -2.29 | 2.98 | Fc1cccc(Nc2nc3cc(CN(Cc4ccccc4)Cc4ccccc4)ccc3c3sccc23)c1 | –
– | -18 | -30.6 | COCCNc1nc2cc(C#N)ccc2c2sccc12 | –
– | 5.71 | -6.97 | c1ccc(COc2nc3cc(-c4nnn[nH]4)ccc3c3sccc23)cc1 | –
-24 | – | – | O=C(NCCc1ccccn1)c1ccc2c(c1)[nH]c(=O)c1ccsc12 | –
7 | – | – | O=C(NCCc1cnc[nH]1)c1ccc2c(c1)[nH]c(=O)c1ccsc12 | –
– | 58.4 | 92.3 | FC(F)(F)CCNc1nc2cc(-c3nnn[nH]3)ccc2c2sccc12 | –
41 | – | – | O=C(Nc1ccccc1C(=O)O)c1ccc2c(c1)[nH]c(=O)c1ccsc12 | –
-13 | – | – | O=C(NCc1ccncc1)c1ccc2c(c1)[nH]c(=O)c1ccsc12 | –
-9 | – | – | O=C(Nc1cccnc1)c1ccc2c(c1)[nH]c(=O)c1ccsc12 | –

inhibition at 10 µM (recombinant human CK2) [%] | inhibition at 0.5 µM (recombinant human CK2; cell-free assay) [%] | inhibition at 0.5 µM (recombinant human PIM1; cell-free assay) [%] | Structure (SMILES) | other results
-10 | – | – | O=C(Nc1ccc(Cl)cc1)c1ccc2c(c1)[nH]c(=O)c1ccsc12 | –
3 | – | – | O=C(NCc1ccccn1)c1ccc2c(c1)[nH]c(=O)c1ccsc12 | –
– | 15.5 | 20.2 | O=C(O)c1cccc2c1nc(Nc1cccc(Cl)c1)c1ccncc12 [drawing 2001] | –
– | -10.8 | 10.6 | N#Cc1ccc2c(c1)nc(Oc1cccc(Cl)c1)c1ccsc12 | –
10 | – | – | O=C(Nc1nccs1)c1ccc2c(c1)[nH]c(=O)c1ccsc12 | –
3 | – | – | CN(C)C(=O)c1ccc2c(c1)[nH]c(=O)c1ccsc12 | –
-24 | – | – | O=C(NCc1cccnc1)c1ccc2c(c1)[nH]c(=O)c1ccsc12 | –
17 | – | – | COC(=O)c1ccc2c(c1)[nH]c(=O)c1ccsc12 | –
0 | – | – | O=C(NC1CC1)c1ccc2c(c1)[nH]c(=O)c1ccsc12 | –
– | 49 | 93.2 | FC(F)(F)CNc1nc2cc(-c3nnn[nH]3)ccc2c2sccc12 | –
-14 | – | – | NC(=O)c1ccc2c(c1)[nH]c(=O)c1ccsc12 | –
– | -17.1 | -30 | COC(C)(C)CNc1nc2cc(C#N)ccc2c2sccc12 | –
– | -18.4 | -32 | N#Cc1ccc2c(c1)nc(NCC(F)(F)F)c1ccsc12 | –
– | -17.9 | 1.38 | CC(=O)c1ccc(Oc2nc3cc(C#N)ccc3c3sccc23)cc1 | –
12 | – | – | O=C(O)CNC(=O)c1ccc2c(c1)[nH]c(=O)c1ccsc12 | –
0 | – | – | O=c1[nH]c2ccccc2c2sccc12 | –
-22 | – | – | COc1ccc(CCNC(=O)c2ccc3c(c2)[nH]c(=O)c2ccsc23)cc1OC | –
8 | – | – | COc1ccccc1CNC(=O)c1ccc2c(c1)[nH]c(=O)c1ccsc12 | –
